# “Also recorded” adds a separate entry of the source. Marks after values point to notes of the source that are not given here.
# Experiments:
# α-ENaC (WT αβγ-ENaC) = test: Membrane abundance of WT α-ENaC (cell surface biotinylation, Western blot); format: cell-based, human; settings: HEK-293, 200 nM solnatide, relative to WT control (=1), p < 0.001 vs control
# Procedure: (§1) Cell surface biotinylation was performed as previously described ([26]). In brief, A549 cells or transiently transfected HEK-293 cells were grown in 10 cm dishes in 37°C, 5% CO2 incubator in DMEM medium supplemented with 5% FBS. […] Medium was aspirated, and then cells were washed twice with 10 ml ice-cold phosphate-buffered saline (PBS), covered with 2.5 mg EZ-Link Sulfo-NHS-SS-Biotin (Thermo Scientific, Rockford, USA), dissolved in 10 ml ice-cold PBS, and incubated at 4°C with gentle agitation for 30 min. Fifty milliliters of quenching solution were added to cells; then cells were scraped in solution and transferred to fresh 50 ml tube. Cell suspension was centrifuged at 500 × g for 3 min. Supernatant was discarded, and 5 ml of Tris-buffered saline (TBS) was added to the cell pellet. The cell pellet was resuspended and centrifuged at 500 × g for 3 min. Supernatant was discarded and cell pellet was resuspended in lysis buffer containing protease inhibitor cocktail (10 µM pepstatin A, 10 µM phenylmethylsulfonyl fluoride, and 10 µM leupeptin) and transferred to fresh 1.5 ml centrifuge tube. Cell pellet was then homogenized on ice by ultrasonication using 1 s bursts and incubated on ice for at least 30 min. Intact cells and nuclei were pelleted by centrifugation at 10,000 × g for 2 min under cooling conditions. […] Exposed films were scanned and quantified using ImageJ (NIH, MD, USA).
# αP197fs = test: Membrane abundance of αP197fs; format: cell-based, human; settings: 200 nM, relative to WT control (=1), own control 1.18 ± 0.05, p < 0.01 vs control
# Procedure: as §1, with “USA). […]” for “USA).”
# αR438fs = test: Membrane abundance of αR438fs; format: cell-based, human; settings: 200 nM, relative to WT control (=1)
# Procedure: as §1, with “USA). […]” for “USA).”
# αS452fs = test: Membrane abundance of αS452fs; format: cell-based, human; settings: 200 nM, relative to WT control (=1), own control 1.11 ± 0.25, p < 0.001 vs control
# Procedure: as §1, with “USA). […]” for “USA).”
# αT482fs = test: Membrane abundance of αT482fs; format: cell-based, human
# Procedure: Cell surface biotinylation was performed as previously described ([26]). In brief, A549 cells or transiently transfected HEK-293 cells were grown in 10 cm dishes in 37°C, 5% CO2 incubator in DMEM medium supplemented with 5% FBS. […] Medium was aspirated, and then cells were washed twice with 10 ml ice-cold phosphate-buffered saline (PBS), covered with 2.5 mg EZ-Link Sulfo-NHS-SS-Biotin (Thermo Scientific, Rockford, USA), dissolved in 10 ml ice-cold PBS, and incubated at 4°C with gentle agitation for 30 min. Fifty milliliters of quenching solution were added to cells; then cells were scraped in solution and transferred to fresh 50 ml tube. Cell suspension was centrifuged at 500 × g for 3 min. Supernatant was discarded, and 5 ml of Tris-buffered saline (TBS) was added to the cell pellet. The cell pellet was resuspended and centrifuged at 500 × g for 3 min. Supernatant was discarded and cell pellet was resuspended in lysis buffer containing protease inhibitor cocktail (10 µM pepstatin A, 10 µM phenylmethylsulfonyl fluoride, and 10 µM leupeptin) and transferred to fresh 1.5 ml centrifuge tube. Cell pellet was then homogenized on ice by ultrasonication using 1 s bursts and incubated on ice for at least 30 min. Intact cells and nuclei were pelleted by centrifugation at 10,000 × g for 2 min under cooling conditions. Pellet was then discarded and supernatant was transferred to fresh tube, incubated overnight with 0.5 ml NeutrAvidin Agarose under gentle rotation at 4°C and centrifuged at 500 × g for 5 min under cooling conditions. Supernatant was then discarded and the pellet washed twice with 200 µl lysis buffer. The biotinylated proteins were eluted with 100 µl sodium dodecyl sulfate (SDS) sample buffer (62.5 mM Tris, pH 6.8, 1% SDS, 10% glycerine, 50 mM dithiothreitol) containing 10 µM E64 at 65°C for 10 min. Sample was then centrifuged at 500 × g for 2 min. Pellet was discarded and supernatant subjected to protein electrophoresis and immunoblotting. The biotinylated proteins were separated under reducing conditions by SDS-PAGE using 7.5% SDS gel along with prestained protein marker (cat. #12949 from Cell Signaling). Proteins were then transferred onto a nitrocellulose membrane (UltraCruzTM […], Santa Cruz Biotechnology, TX, USA) by semi-dry blotting at 25 V for 30 min. Unspecific binding sites were blocked by incubating the membrane overnight at 4°C with 3% FBS in PBS supplemented with 0.02% sodium azide. Membrane was then incubated for 90 min with primary antibody (anti-α-hENaC, anti-δ-hENaC, and anti-β-actin from Sigma Aldrich; anti-β- and anti-γ-hENaC from Santa Cruz Biotechnology). Membrane was washed 5× with 10 ml PBS containing 0.1% Tween-20 (PBST), and corresponding horseradish peroxidase-conjugated secondary antibodies (Santa Cruz Biotechnology) were applied. After 90-min incubation, membrane was washed 3× with PBST and once with PBS. Enhanced chemiluminescence (ECL) substrate (Amersham ECL Plus Western Blotting Detection Reagent, GE Healthcare, Vienna, Austria) was used for visualization. Following incubation for 2 min, membranes were exposed to X-ray films (Amersham Hyperfilm ECL, GE Healthcare). Exposed films were scanned and quantified using ImageJ (NIH, MD, USA).
# To study α-ENaC protein abundance in plasma membrane cell surface, biotinylation of HEK-293 cells transiently transfected with WT or different PHA1B mutants was followed by SDS-PAGE and immunoblotting. Expression of frameshift mutants varied markedly. […]
# ENaC PHA1B point mutants = settings: PHA1B point mutants with WT subunits; cited from earlier work
# Text: PHA1B is a very rare inherited disease caused by mutations in the genes encoding the α (SCNN1A), β (SCNN1B), or γ (SCNN1G), subunit of ENaC, resulting in defective transepithelial sodium transport ([28]). […] Loss-of-function mutations in ENaC genes translate into the salt-wasting genetic disease PHA1B ([33], [41]). […] Remarkably, amiloride-sensitive currents were restored ...
smiles,measurement,setting,value
"C[C@@H]1NC(=O)CNC(=O)[C@H](CCC(=O)O)NC(=O)[C@@H]2CCCN2C(=O)[C@H]([C@@H](C)O)NC(=O)[C@H](CCC(=O)O)NC(=O)[C@H](CCCNC(=N)N)NC(=O)[C@H](CCC(N)=O)NC(=O)CNC(=O)[C@@H](N)CSSC[C@@H](C(=O)O)NC(=O)[C@H](Cc2ccc(O)cc2)NC(=O)[C@H](Cc2c[nH]c3ccccc23)NC(=O)[C@@H]2CCCN2C(=O)[C@H](CCCCN)NC(=O)[C@H](C)NC(=O)[C@H](CCC(=O)O)NC1=O [solnatide, L-cysteine, L-cysteinylglycyl-L-glutaminyl-L-arginyl-L-α-glutamyl-L-threonyl-L-prolyl-L-α-glutamylglycyl-L-alanyl-L-α-glutamyl-L-alanyl-L-lysyl-L-prolyl-L-tryptophyl-L-tyrosyl-, cyclic (1→17)-disulfide]","Membrane abundance, solnatide 5 min","α-ENaC (WT αβγ-ENaC); 5 min, normalized to β-actin",1.48 ± 0.12
same,"Membrane abundance, solnatide 10 min",α-ENaC (WT αβγ-ENaC); 10 min,1.40 ± 0.09
same,"Membrane abundance, solnatide 5 min",αP197fs,1.33 ± 0.07
same,"Membrane abundance, solnatide 5 min","αR438fs; 5 min, own control 0.90 ± 0.07, p < 0.001 vs control",1.39 ± 0.14
same,"Membrane abundance, solnatide 10 min","αR438fs; 10 min, own control 0.90 ± 0.07",0.87 ± 0.10
same,"Membrane abundance, solnatide 5 min",αS452fs; 5 min,1.36 ± 0.11
same,"Membrane abundance, solnatide 10 min",αS452fs; 10 min,1.94 ± 0.08
same,Membrane abundance,"αT482fs; glycosylated αT482fs, 200 nM solnatide, 5 min, n = 4",even more after 5 min of solnatide treatment
same,Increase in membrane abundance after PNGase F,"αT482fs; αT482fs, 200 nM solnatide, 100 units PNGase F, n = 4",completely abolished in deglycosylated mutants; also recorded: after PNGase F treatment no differences can be observed
same,Membrane abundance after solnatide,"αT482fs; αT482fs, HEK-293, discussion, no time stated",the membrane abundance increasing even further following exposure to solnatide
same,"Membrane abundance, solnatide 5 min","αT482fs; αT482fs, 200 nM, 5 min, relative to WT control (=1), own control 4.67 ± 0.27, p < 0.001 vs control, n = 4",6.23 ± 0.24***
same,"Membrane abundance, solnatide 10 min","αT482fs; αT482fs, 200 nM, 10 min, relative to WT control (=1), own control 4.67 ± 0.27, n = 4",4.58 ± 0.30
same,Restoration of amiloride-sensitive currents,ENaC PHA1B point mutants,restored to WT control levels; also recorded: restoring current levels in these mutant ENaC-expressing cells to WT levels or even higher

# From publication PMC5447021, “TNF Lectin-Like Domain Restores Epithelial Sodium Channel Function in Frameshift Mutants Associated with Pseudohypoaldosteronism Type 1B” (Frontiers in Immunology, 2017)
